From paper PMC13100289 (The Journal of Biological Chemistry, 2026)

Target: T1, Neutral endopeptidase (neprilysin) (Homo sapiens, UniProt P08473)
T1 construct: purchased; host or cells: CHO cells
Test: Metalloprotease selectivity panel (Eurofins Panlabs): neprilysin
Type: biochemical
Conditions: assay validation, read-out: IC50 of reference inhibitor
Excerpt: Supplementary Table S1. […] Reference compounds were used to validate the assay for inhibition.

T1 sequence (P08473 whole entry): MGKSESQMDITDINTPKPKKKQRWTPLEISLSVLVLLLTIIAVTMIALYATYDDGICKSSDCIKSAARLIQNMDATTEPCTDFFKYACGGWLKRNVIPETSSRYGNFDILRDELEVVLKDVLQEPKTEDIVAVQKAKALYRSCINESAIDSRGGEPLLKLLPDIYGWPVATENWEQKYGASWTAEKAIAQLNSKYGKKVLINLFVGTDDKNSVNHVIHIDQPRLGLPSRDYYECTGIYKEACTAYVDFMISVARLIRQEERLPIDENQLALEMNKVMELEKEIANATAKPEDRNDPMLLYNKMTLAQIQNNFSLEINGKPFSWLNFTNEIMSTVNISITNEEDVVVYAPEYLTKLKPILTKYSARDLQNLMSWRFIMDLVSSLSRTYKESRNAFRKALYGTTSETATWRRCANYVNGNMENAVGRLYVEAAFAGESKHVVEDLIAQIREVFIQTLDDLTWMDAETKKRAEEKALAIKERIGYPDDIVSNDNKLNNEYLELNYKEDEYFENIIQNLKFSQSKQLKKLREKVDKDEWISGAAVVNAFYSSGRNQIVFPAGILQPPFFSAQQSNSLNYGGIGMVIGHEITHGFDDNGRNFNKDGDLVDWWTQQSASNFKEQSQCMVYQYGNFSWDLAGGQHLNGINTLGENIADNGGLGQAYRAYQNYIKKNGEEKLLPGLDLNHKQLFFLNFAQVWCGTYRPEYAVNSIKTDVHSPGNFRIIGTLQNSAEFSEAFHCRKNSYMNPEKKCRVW

With `CC(C)C[C@H](NP(=O)(O)O[C@@H]1O[C@@H](C)[C@H](O)[C@@H](O)[C@H]1O)C(=O)N[C@@H](Cc1c[nH]c2ccccc12)C(=O)O` [Phosphoramidon] the IC50 was 1.99 nM.
